Data as given in US20260103474A1, “NOVEL COMPOUNDS FOR THE DIAGNOSIS OF TDP-43 PROTEINOPATHIES” (AC IMMUNE SA, priority 2022, published 2026).

Columns and labels:
[1] = PK studies in healthy monkey (PET); type: in vivo; conditions: iv, Non-Human Primate; for Time of brain entry post injection / Washout: peak to half peak: whole brain
Method: Non-Human Primate (NHP) was injected intravenously (iv) with the [^18F]-labeled Compound 1 ([^18F]Compound 1) (4.2 mCi) or with the [^18F]-labeled Compound 17 ([^18F]-Compound 17) (5.3 mCi). Monkey PET scans were performed using a Siemens Focus 220. PET acquisition started immediately before the radioactive dose was injected. Images were generated as dynamic scans for 120 minutes with head focused.

[2] = target: human FTD Type A sarkosyl-insoluble brain extracts (Homo sapiens, UniProt Q13148); assay: Kd determination by micro-radiobinding assay on FTD Type A extracts; type: binding; conditions: tritiated compound 1.29 to 300 nM
Chain of human FTD Type A sarkosyl-insoluble brain extracts (Q13148 263-414 limits assumed): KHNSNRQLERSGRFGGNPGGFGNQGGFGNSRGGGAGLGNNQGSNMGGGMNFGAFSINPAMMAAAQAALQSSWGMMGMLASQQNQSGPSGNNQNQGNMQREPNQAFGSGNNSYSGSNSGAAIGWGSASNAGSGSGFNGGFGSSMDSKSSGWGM
Method: (§1) Human brain extracts were prepared as described in Laferriere et al., 2019, Nature Neurosc. A sample of brain tissue (frontal or temporal cortex) was homogenized at 1:4 (w/v) ratio in the homogenization-solubilization (HS) buffer at 4° C. using tissue homogenizer (Precellys) with CKmix homogenization tubes. The following sequence was used for homogenization: 3 cycles of 30 seconds at 5000 rpm (with 15 seconds pause between each cycle). Homogenized samples were aliquoted and stored at −80° C. in 1.5 mL low protein binding tubes.
(§2) Brain homogenates were thawed on ice and resuspended in HS buffer to obtain a final concentration of 2% sarkosyl, 1 unit/μL Benzonase and 1 mM MgCl2. The samples were then incubated at 37° C. under constant shaking at 600 rpm on a thermomixer for 45 minutes (min). The supernatants were collected in a new tube (sarkosyl-soluble fraction, S1). The pellet was resuspended in 1000 μL of myelin floatation buffer and centrifuged at 20,000 g for 60 min at 4° C. The supernatant was carefully removed to remove all the floating lipids. This step was repeated if all the lipids could not be removed in a single step. The pellet was subsequently washed with Phosphate-Buffered Saline (PBS) and centrifuged for 30 min at 20,000 g at 4° C. The final pellet was resuspended in 200 μL PBS and stored at −80° C. (sarkosyl-insoluble fraction). The samples were analyzed by immunoblotting in denaturing conditions.
Human FTD sarkosyl-insoluble brain extracts were spotted onto microarray slides. The slides were incubated with [^3H]-Compounds 1, 7, 8, 9, 15, 16 and 17 in a range of concentrations, varying from 1.29 to 300 nM. After incubation, slides were washed and scanned by a real-time autoradiography system (BeaQuant, ai4R). Quantification of the signal was performed by using the Beamage image analysis software (ai4R). Non-specific signal was determined with an excess of non-radiolabeled compound 1, 7, 8, 9, 15, 16 and 17 (1 μM), respectively, and specific binding was calculated by subtracting the non-specific signal from the total signal.
The Kd (Dissociation constant) and R^2 (parameter ranging between 0.0 and 1.0 that quantifies the goodness of fit, and the best curve fit obtained with value of 1.0) were obtained by fitting the specific binding data with non-linear regression analysis, using a one-site specific binding model in GraphPad Prism8.

[3] = target: T1, Abeta (Homo sapiens, UniProt P05067); assay: Radiobinding competition assay using Abeta reference compound on AD insoluble fraction of brain homogenates; type: binding; conditions: against [3H]Abeta reference compound; cells printed in μM; read-out: Ki on AD brain homogenates
T1 construct: an AD donor with confirmed burden of Tau and Abeta aggregates; from tissue; host or cells: frontal cortex of a human AD donor, Triton/sucrose-insoluble fraction
T1 sequence (P05067 672-713 limits assumed): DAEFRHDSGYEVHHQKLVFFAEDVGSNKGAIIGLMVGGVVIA
Method: Approximately 4 g of frozen tissue block from frontal cortex brain region was used from an AD donor with confirmed burden of Tau and Abeta aggregates. The tissue was homogenized in three volumes (1:3 w/v) of high salt buffer (50 mM Tris-HCl pH 7.5, 750 mM NaCl, 5 mM EDTA) supplemented with protease inhibitors (Complete; Roche 11697498001) at 4° C. with a glass Dounce homogenizer. The homogenate was transferred into polycarbonate centrifuge bottles (16×76 mm; Beckman 355603) and centrifuged at 100,000×g (38,000 RPM) in an ultracentrifuge (Beckman, XL100K) for 60 minutes at 4° C. using a pre-cooled 70.1 rotor (Beckman, 342184). Pellets were resuspended in high salt buffer supplemented with 1% Triton X-100 and homogenized at 4° C. with a syringe. The homogenates were centrifuged again at 100,000×g (38,000 RPM, 70.1 rotor) for 60 minutes at 4° C. Pellets were resuspended in high salt buffer supplemented with 1% Triton X-100 and 1 M sucrose and homogenized at 4° C. with a syringe. The homogenates were centrifuged at 100,000×g (38,000 RPM, 70.1 rotor) for 60 minutes at 4° C. The resulting pellets containing insoluble fraction were resuspended in PBS (1:2 w/v relative to starting tissue weight), aliquoted and stored at −80° C. until use.
The reaction was performed in assay buffer (50 mM Tris pH 7.5 in 0.9% NaCl, 0.1% BSA) and incubated for two hours at room temperature (RT). Samples in duplicate were then filtered under vacuum in GF/C filter plates (PerkinElmer) to trap the aggregates with the bound radioligand and washed with 100 μL ice-cold 50 mM Tris pH 7.5. The GF/C filters were then dried and scintillation liquid (UltimateGold, PerkinElmer, 6013151) was added in each well. The filters were analyzed on a Microbeta2 scintillation counter (PerkinElmer). Values for the maximal signal were obtained in the absence of non-radiolabeled compound, while 100% displacement was obtained using 1 μM of non-radiolabeled reference compound. Ki values were calculated by nonlinear regression, using a one site—fit Ki model in Prism V7 (GraphPad).

[4] = target: T2, Human brain derived TDP-43 aggregates (Homo sapiens, UniProt Q13148); assay: Micro-radiobinding competition assay for binding affinity to TDP-43; conditions: for Ki: 0.24 nM to 2 μM vs tritiated reference ligand at 40 nM; for Human brain derived TDP-43 aggregates Mean % competition at 250 nM: non-radiolabeled compound at 250 nM vs tritiated reference ligand at 40 nM; for Human brain derived TDP-43 aggregates Mean % competition at 250 nM / Human brain derived TDP-43 aggregates Mean % competition at 2 μM: FTD sarkosyl-insoluble brain extracts; for Human brain derived TDP-43 aggregates Mean % competition at 2 μM: non-radiolabeled compound at 2 μM vs tritiated reference ligand at 40 nM
T2 construct: Human FTD sarkosyl-insoluble brain extracts were spotted onto microarray slides
T2 sequence (Q13148 261-414 limits assumed): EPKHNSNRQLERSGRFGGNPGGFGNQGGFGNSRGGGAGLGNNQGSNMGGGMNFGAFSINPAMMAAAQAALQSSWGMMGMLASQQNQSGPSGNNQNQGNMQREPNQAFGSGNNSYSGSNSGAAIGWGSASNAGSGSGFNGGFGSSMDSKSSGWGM
Method: as §1, §2
Human FTD sarkosyl-insoluble brain extracts were spotted onto microarray slides. The slides were incubated with a tritiated reference ligand at 40 nM, and the example compounds (non-radiolabeled) at 2 μM and 250 nM. […] After incubation, slides were washed and scanned by a real-time autoradiography system (BeaQuant, ai4R). Quantification of the signal was performed by using the Beamage image analysis software (ai4R). Non-specific signal was determined with an excess of non-radiolabeled reference compound (2 μM) and specific binding was calculated by subtracting the non-specific signal from the total signal. Competition was calculated as percent, where 0% was defined as the specific binding in the presence of vehicle and 100% as the values obtained in the presence of excess of the non-radiolabeled reference compound. Ki values were calculated in GraphPad Prism8 by applying a nonlinear regression curve fit using a one site, specific binding model. Measurements were performed with at least two technical replicates in the two-concentration competition experiment and with one technical replicate in the experiments including a range of concentrations. For compounds tested in more than one experiment, the mean of the replicates or Ki values in independent experiments is reported.

[5] = target: TDP-43 aggregates (Homo sapiens, UniProt Q13148); assay: Classical autoradiography in brain sections from patients with FTD; type: binding
Chain of TDP-43 aggregates (Q13148 whole entry): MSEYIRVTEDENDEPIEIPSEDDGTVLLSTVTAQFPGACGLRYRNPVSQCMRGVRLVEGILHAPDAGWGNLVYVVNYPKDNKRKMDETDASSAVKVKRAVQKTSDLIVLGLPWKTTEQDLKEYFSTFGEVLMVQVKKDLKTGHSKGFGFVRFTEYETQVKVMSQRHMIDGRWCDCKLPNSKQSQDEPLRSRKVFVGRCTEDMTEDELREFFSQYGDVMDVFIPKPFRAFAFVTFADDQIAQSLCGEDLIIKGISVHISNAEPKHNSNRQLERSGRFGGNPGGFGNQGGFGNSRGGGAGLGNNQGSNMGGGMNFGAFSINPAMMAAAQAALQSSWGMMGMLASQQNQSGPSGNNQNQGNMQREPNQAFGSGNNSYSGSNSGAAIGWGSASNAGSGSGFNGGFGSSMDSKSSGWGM
Method: All tissues were collected from donors for or from whom a written informed consent for a brain autopsy and the use of the material and clinical information for research purposes had been obtained by the respective brain banks. All samples were anonymized and coded. Frozen brain tissue blocks with confirmed TDP-43 pathology upon autopsy were processed using a cryotome to generate sections of 10 μm in thickness and mounted on glass slides. Sections were kept at −80° C. until use.
Brain sections were fixed for 15 minutes at 4° C. with 4% formaldehyde on ice and washed three times for eight minutes with 1×PBS at RT. Sections were blocked in assay buffer for 30 minutes (50 mM Tris-HCl, 0.9% NaCl+0.1% BSA). Cold test compound (Compound 1, Compound 8 or Compound 17) was diluted in assay buffer to 4 μM and applied on half of the sections for 40 minutes at RT to determine non-specific binding. The remaining half of the sections were only incubated with assay buffer (total binding). Following this incubation, an equal volume of the corresponding tritiated compound (i.e. [^3H]-Compound 1, [^3H]-Compound 8 or [^3H]-Compound 17, respectively), diluted to 20 nM (for [^3H]-Compound 1 and [^3H]-Compound 8) or 10 nM ([^3H]-Compound 17) or increasing concentration from 0.1 to 200 nM (for [^3H]-Compound 1 and [^3H]-Compound 17), was added on sections and incubated for 2 hours at RT and then washed as follows: once in ice-cold 50 mM Tris-HCl pH 7.4 buffer for one minute, twice in ice-cold PBS for one minute, once in ice-cold 50 mM Tris-HCl pH 7.4 buffer for one minute and finally rinsed briefly in ice-cold distilled water.
Sections were subsequently dried under a stream of air and mounted with a copper-based adhesive strip. Bound radioactivity was quantified by exposing the slides in a real-time autoradiography system (Beaquant™ AI4R) for 2 hours, with measurement settings configured for tritium. Beavacq software (AI4R) was used to acquire the image which was subsequently quantified using Beamage image analysis software (AI4R). Specific binding (non-specific binding subtracted from total) and displacement (total binding divided by non-specific) were calculated. Bar graphs were generated using GraphPad Prism. For Kd determination on brain sections, the specific binding data were fitted with a non-linear regression analysis using a one-site specific binding model in GraphPad Prism.

[6] = total binding divided by non-specific binding, grey matter, self-block with cold compound

Structure (SMILES)	Kd [2] [nM]	Ki [3] [µM]	Ki [4] [nM]	Human brain derived TDP-43 aggregates Mean % competition at 250 nM [4] [%]	Human brain derived TDP-43 aggregates Mean % competition at 2 μM [4] [%]	other results
O=C1c2sc(-c3ccc(N4CCC(CO)CC4)nc3[18F])nc2CCN1c1cccnc1 [[^18F]-Compound 17, 2-(2-(fluoro-^18F)-6-(4-(hydroxymethyl)piperidin-1-yl)pyridin-3-yl)-5-(pyridin-3-yl)-6,7-dihydrothiazolo[5,4-c]pyridin-4(5H)-one]	–	–	–	–	–	SUVmax whole brain [1]: 1.1 SUVmax; Time of brain entry post injection [1]: 4.5 min; Washout: peak to half peak [1]: < 13 min
O=C1c2sc(-c3ccc(N4CC[C@H](F)C4)nc3F)nc2CCN1c1ncccn1 [[^3H]-Compound 16]	24 ± 3	–	–	–	–	–
O=C1c2sc(-c3ccc(N4CC[C@H](F)C4)nc3F)nc2CCN1c1cccnc1 [Compound 8, (S)-2-(2-fluoro-6-(3-fluoropyrrolidin-1-yl)pyridin-3-yl)-5-(pyridin-3-yl)-6,7-dihydrothiazolo[5,4-c]pyridin-4(5H)-one]	–	> 1	73	55	73	Displacement on FTLD-TDP type A and B compared to non-demented control ([5]; classical autoradiography): increased displacement; cARG displacement on FTLD-TDP Type A case [5, 6]: 3.0; cARG displacement on FTLD-TDP Type B case [5, 6]: 3.3; cARG displacement on non-demented control [5, 6]: 2.3
O=C1c2sc(-c3ccc(N4CC[C@@H]([18F])C4)nc3F)nc2CCN1c1cccnc1 [[^18F]-Compound 1, fluorinated 2-[2-fluoro-6-[(3R)-3-fluoropyrrolidin-1-yl]-3-pyridyl]-5-(3-pyridyl)-6,7-dihydrothiazolo[5,4-c]pyridin-4-one]	–	–	–	–	–	SUVmax whole brain [1]: 2.7 SUVmax; Time of brain entry post injection [1]: 5.5 min; Washout: peak to half peak [1]: < 17 min
[3H]c1cnc(N2CCc3nc(-c4cc([3H])c(N5CC[C@@H](F)C5)nc4F)sc3C2=O)nc1 [[^3H]-Compound 15, Tritiated 2-[2-fluoro-6-[(3R)-3-fluoropyrrolidin-1-yl]-3-pyridyl]-5-pyrimidin-2-yl-6,7-dihydrothiazolo[5,4-c]pyridine-4-one]	21 ± 7	–	–	–	–	–
[3H]c1cc(N2CCc3nc(-c4cc([3H])c(N5CC[C@@H](F)C5)nc4F)sc3C2=O)ccn1 [[^3H]-Compound 7, Tritiated (R)-2-(2-fluoro-6-(3-fluoropyrrolidin-1-yl)pyridin-3-yl)-5-(pyridin-4-yl)-6,7-dihydrothiazolo[5,4-c]pyridin-4(5H)-one]	39 ± 11	–	–	–	–	–
O=C1c2sc(-c3ccc(N4CC[C@H](F)C4)nc3F)nc2CCN1c1ccncn1 [Compound 37]	–	> 1	25	80	70	–
N#Cc1c(N)cccc1N1CCc2nc(-c3ccc(N4CCC[C@H](F)C4)nc3F)sc2C1=O [Compound 31]	–	> 1	4	62	70	–
Nc1cc(N2CCc3nc(-c4ccc(N5CCC[C@H](F)C5)nc4F)sc3C2=O)ccn1 [Compound 29]	–	> 1	43	45	86	–
[3H]c1cncc(N2CCc3nc(-c4cc([3H])c(N5CC[C@H](F)C5)nc4F)sc3C2=O)c1 [[^3H]-Compound 8, tritiated (S)-2-(2-fluoro-6-(3-fluoropyrrolidin-1-yl)pyridin-3-yl)-5-(pyridin-3-yl)-6,7-dihydrothiazolo[5,4-c]pyridin-4(5H)-one]	47 ± 8	–	–	–	–	–
